This assay has as its system P. falciparum 3D7 growth, pLDH absorbance. Kind of assay: blood-stage malaria parasite growth potency – strain 3D7, dose response (AID 2305).
As usually defined, the IC50 is the concentration needed to halve the response being measured. The low end stands for greater potency, the high end for weaker potency. Consider `Cc1noc(C)c1-c1cccc(CNCc2ccc(-c3ccc(-c4nc5ccc(F)cc5[nH]4)cc3)cc2)c1`, for which the IC50 turned out to be 210 nM.

`CN1CCN(Cc2ccc(-c3ccc4c(Nc5ccc(Cl)cc5F)ccnc4c3)o2)CC1` showed an IC50 of 150 nM. The compound `CCc1ccc(C2CCN(CCCCNC(=O)c3ccc(-c4ccc(C(F)(F)F)cc4)cc3)CC2)c(OCCO)c1` returned an IC50 of 410 nM.

With `CC(=O)N(C)c1ccc(C(=O)Nc2cccc(-c3cccc(-c4nc5ccc(C(F)(F)F)cc5[nH]4)c3)c2)cc1`, the IC50 stood at 310 nM. The compound `CCOC(=O)c1[nH]c(-c2cccnc2)nc1NC(=S)NCc1ccccc1` yielded an IC50 of 710 nM. In turn, `Clc1ccc(C2CCN(CCCOc3ccc4c(c3)CCNCC4)CC2)cc1` came in with an IC50 of 750 nM. `NC(=O)C1CCN(Cc2ccc(-c3ccc(-c4nc5ccc(C(F)(F)F)cc5[nH]4)s3)cc2)CC1` returned an IC50 of 540 nM. With `CCc1cn2c3c(cc(C(=O)N[C@@H](Cc4cccc(F)c4)[C@H](O)CNC4CC4)cc13)N(C)S(=O)(=O)CC2` the figure was 140 nM; with `Cc1sc2nc(CN3CCCC3)nc(-n3c(NCCO)nc4ccccc43)c2c1C`, 1240 nM; with `Cc1[nH]c(C)c(-c2ccc(-c3ccccc3Cl)nc2)c(=O)c1Br`, 170 nM. Compound `C[C@@H]1CN(c2ncc(-c3ccc(CNC4Cc5ccccc5C4)cc3)cn2)C[C@H](C)N1` returned an IC50 of 1160 nM. The compound `CCCCCCCn1c(=N)n(CC(O)c2ccc(Cl)c(Cl)c2)c2ccccc21` (stereo unspecified) returned an IC50 of 780 nM. The IC50 values of the last two compounds are within 1.5-fold of each other.

Regarding `c1cc2c3c(cccc3c1)NC(CCCCCCCCC1=Nc3cccc4cccc(c34)N1)=N2`, the IC50 amounted to 830 nM. The compound `CN1CCCN(Cc2ccc(-c3cccc(NC(=O)c4ccc(F)cc4)c3)cc2)CC1` registered an IC50 of 1090 nM.

For the compound `O=C(Nc1ccc(-c2cccc(-c3nc4ccc(C(F)(F)F)cc4[nH]3)c2)cc1)Nc1ccc(Cl)c(Cl)c1`, the IC50 amounted to 750 nM.

As for `Cc1cc(N)c2cc(NC(=O)c3cc4ccccc4s3)ccc2n1`, the IC50 came out at 110 nM. Compound `CCCCCN1CCC(CNS(=O)(=O)c2ccc(C(=O)Nc3cccc(C(F)(F)F)c3)cc2)CC1` came in with an IC50 of 750 nM.

On to `OC(CNC12CC3CC(CC(C3)C1)C2)c1cccc(C(F)(F)F)c1` (stereo unspecified), for which the 50% inhibitory concentration (IC50) came to 300 nM. `CC(Nc1ncc(-c2ccsc2)c(-c2nccs2)n1)c1ccc2c(c1)OCCO2` (stereo unspecified) registered an IC50 of 170 nM.

The compound `CN1CCC(c2csc3ccc(NC(=O)Nc4ccc(-c5ccncc5)c5ccccc45)cc23)CC1` came in with an IC50 of 1020 nM. Regarding `CN(C)c1ccc(-c2ccc(C(=O)NC3CCN(Cc4ccc5c(c4)OCCO5)CC3)s2)cc1`, the IC50 is 1120 nM. With `COc1cc2nc(N3CCC(CNC(=O)c4ccc(-c5ccc(-c6noc(C)n6)cc5C)cc4)CC3)nc(N)c2cc1OC`, the IC50 amounted to 220 nM. Take `Cc1[nH]c(C)c(-c2ccc(Oc3cc(Cl)cc(Cl)c3)cc2)c(=O)c1Br`: the half-maximal inhibitory concentration (IC50) was determined as 240 nM.

Compound `CS(=O)(=O)Cc1ccc(Nc2nccc(-c3c(-c4cccc(NC(=O)c5c(F)cccc5F)c4)nn4ncccc34)n2)cc1` registered an IC50 of 160 nM. Against the preceding compound, the IC50 is about 1.5-fold lower. Compound `Cc1cccc(NC(=O)Nc2ccc(I)c(OCCN(C)C)c2)c1C` returned an IC50 of 730 nM. Regarding `COc1ccc(NC(=O)c2ccc3[nH]c(-c4ccc(Cl)cc4)cc3c2)cc1OCCN(C)C`, the IC50 amounted to 810 nM.

Turning to `CN(Cc1c(Cl)cnn1C)S(=O)(=O)c1ccc2ccccc2c1`, the IC50 was found to be 1040 nM.

`Cc1ccc(CNC(=O)[C@H](CC(C)C)Nc2cc(C)nc(Nc3ccccc3)n2)cc1` gave an IC50 of 1770 nM. Against the preceding compound, the IC50 is about 1.7-fold higher. Consider `CC(=O)c1cccc(NC(=O)N2CCCN(CCCCCNC(=O)/C=C/c3ccc(Cl)c(Cl)c3)CC2)c1`, for which the IC50 came out at 1010 nM. For `COc1ccc2c(NN=Cc3ccccc3Cl)cc(C)nc2c1` the value was 370 nM; for `COc1cc2c(C3CCN(CC4CCC(NC(=O)/C=C/c5ccc(Cl)c(Cl)c5)CC4)CC3)c[nH]c2cn1` (stereo unspecified), 420 nM; for `N#Cc1ccc(N(CCOc2ccc3c(c2)CCC(=O)N3)Cc2ccccc2C(F)(F)F)cc1C(F)(F)F`, 760 nM. For `CCOc1cc(C(=O)NCC2CCN(CC3CCCCC3)CC2)ccc1-c1nc2ccc(Cl)cc2[nH]1` the value was 560 nM.

As to `Fc1ccc2nc(-c3ccc(-c4cccc(CN5CCC(CCN6CCCCC6)CC5)c4)cc3)[nH]c2c1`, the IC50 was 140 nM. Against the preceding compound, the IC50 is about 4-fold lower. `O=C(N[C@H]1CCN(Cc2ccc(OCCCN3CCCCC3)cc2)C1)c1ccc2ccccc2c1`: the IC50 worked out at 760 nM. Against the preceding compound, the IC50 is about 5.4-fold higher.

`COc1cc(Cc2cnc(N)nc2N)cc(OCCCCCCC(=O)O)c1OC`: the IC50 stood at 940 nM. For `COc1ccccc1NC(=O)OC(COc1ccc(N)cc1)CN1CC=C(c2ccccc2)CC1` (stereo unspecified), the IC50 is 1040 nM. As to `NC1CCN(c2nc(NCCc3ccc(O)cc3)nc(NCc3ccccc3-c3ccccc3)n2)CC1`, the IC50 was 820 nM.

Turning to `CCN(CC)c1ccc(NC(=S)NC2CCN(CCCCCNC(=O)/C=C/c3ccc(Cl)c(Cl)c3)CC2)cc1`, the IC50 amounted to 880 nM. With `CC(C)(C)c1ccc2nc(-c3ccc(C(=O)NC4CCN(Cc5ccccc5)CC4)s3)[nH]c2c1` the figure was 360 nM; with `Cc1c(C(=O)Nc2cc(Sc3ccc(F)cc3)cc([N+](=O)[O-])c2)sc2ncn(Cc3ccccc3F)c(=O)c12`, 800 nM. As to `CC(=O)Nc1nc(C(=O)Nc2cccc(-c3cccc(-c4nc5c(C)cccc5[nH]4)c3)c2)cs1`, the IC50 was found to be 110 nM. Compared with the last compound, the IC50 is about 7.3-fold lower. With `NC1CCN(Cc2ccc(-c3ccc(-c4nc5ccccc5[nH]4)s3)cc2)C1` (stereo unspecified) the figure was 740 nM; with `CCOC(=O)c1ccc(COc2ccc(C)nc2)cc1`, 540 nM; with `CCOc1ccc2nc(C)cc(NN=Cc3cccc(C)n3)c2c1`, 750 nM. `CCOc1cc(C(C)C)ccc1C1CCN(CCCCNC(=O)c2ccc(NC(=O)c3ccc(Cl)cc3)cc2)CC1` came in with an IC50 of 810 nM. Compound `O=C(NCCN1CCCCC1)c1ccc(Nc2nccc(Nc3ccc(Oc4ccccc4)cc3)n2)cc1` came in with an IC50 of 550 nM. This IC50 and that of the compound before are within 1.5-fold of each other. `CN(C)C(=O)n1cnc(S(=O)(=O)N(C)c2ccc(Cl)cc2)n1` gave an IC50 of 770 nM. Take `Cc1cccc(CCNC(=O)c2cc(Br)cc(N3CCN(c4ccncc4)CC3)c2)c1`: the IC50 amounted to 870 nM. As to `CSc1sc(NC(=O)Nc2cccc(C(F)(F)F)c2)cc1C#N`, the IC50 amounted to 910 nM. For the compound `C=CCc1cc(Cc2cnc(N)nc2N)cc(CCC)c1OC`, the IC50 was 1360 nM.

For the compound `OCC1CCCCN1Cc1cccc(-c2cccc(-c3nc4ccccc4[nH]3)c2)c1` (stereo unspecified), the IC50 amounted to 780 nM. Compared with the last compound, the IC50 is about 1.7-fold lower.

`Cc1cc(NC(=O)NCCN2CCC(NS(=O)(=O)c3cccc(Br)c3)C2)c2ccccc2n1` (stereo unspecified) had an IC50 of 610 nM. For `O=C(NCc1cc2c(cc1Cl)OCO2)c1ccc(CNC2CCN(Cc3ccccc3)CC2)cc1` the value was 830 nM; for `Cc1ccccc1C1CCN(C2CCC(NC(=O)c3cc4cc(Cl)ccc4o3)CC2)CC1` (stereo unspecified), 1200 nM.

The compound `CN1CCC(N2CCN(Cc3cccc(-c4ccc(-c5nc6ccc(F)cc6[nH]5)cc4)c3)CC2)CC1` returned an IC50 of 110 nM. With `N#CCOc1c(C2CCN(CCCCNC(=O)c3ccc(-c4ccc(C(F)(F)F)cc4)cc3)CC2)ccc2c1CCCC2` the figure was 760 nM; with `CN1CCN(c2ccc(Nc3nccc(-c4cnn5ncccc45)n3)cc2Cl)CC1`, 830 nM. The compound `Cc1nnsc1C(=O)Nc1cccc(-c2ccc(-c3nc4c(C)cccc4[nH]3)s2)c1` displayed an IC50 of 1120 nM. For `COc1ccc(-c2ccc(NC(=O)c3cccc(Cl)c3)c(F)c2)cc1CNC(C)C` the value was 890 nM. `CC[C@H](C)CNC(=O)c1cncc(-c2cccc(CN3CCC(N4CCCC4)CC3)c2)c1` yielded an IC50 of 1170 nM.

(Values after PubChem BioAssay AID2305 (GlaxoSmithKline (GSK), 2010).)
